Data taken from the supplement of paper PMC13380429.

Tests used:
Conditions in all cases: 72 h
Vero E6 [1] = test: drug sensitivity score (DSS) for viability; higher = more toxic; extreme values may be limits of the assay
U2OS [2] = test: as above
Caco-2 [3] = test: as above
Calu-3 [4] = test: as above
HepG2 [5] = test: as above
Vero E6 [6] = test: cell viability relative to DMSO; higher = less toxic
U2OS [7] = test: as above
Caco-2 [8] = test: as above
Calu-3 [9] = test: as above
HepG2 [10] = test: as above
Vero E6 [11] = test: relative viability EC50 (midpoint between 100% and the lowest measured viability); higher = less toxic
U2OS [12] = test: as above
Caco-2 [13] = test: as above
Calu-3 [14] = test: as above
HepG2 [15] = test: as above

Compound	drug sensitivity score (Vero E6 [1])	drug sensitivity score (U2OS [2])	drug sensitivity score (Caco-2 [3])	drug sensitivity score (Calu-3 [4])	drug sensitivity score (HepG2 [5])	cell viability (Vero E6 [6]; 1 nM) [%]	cell viability (Vero E6 [6]; 10 nM) [%]	cell viability (Vero E6 [6]; 100 nM) [%]	cell viability (Vero E6 [6]; 1000 nM) [%]	cell viability (Vero E6 [6]; 10000 nM) [%]	cell viability (U2OS [7]; 1 nM) [%]	cell viability (U2OS [7]; 10 nM) [%]	cell viability (U2OS [7]; 100 nM) [%]	cell viability (U2OS [7]; 1000 nM) [%]	cell viability (U2OS [7]; 10000 nM) [%]	cell viability (Caco-2 [8]; 1 nM) [%]	cell viability (Caco-2 [8]; 10 nM) [%]	cell viability (Caco-2 [8]; 100 nM) [%]	cell viability (Caco-2 [8]; 1000 nM) [%]	cell viability (Caco-2 [8]; 10000 nM) [%]	cell viability (Calu-3 [9]; 1 nM) [%]	cell viability (Calu-3 [9]; 10 nM) [%]	cell viability (Calu-3 [9]; 100 nM) [%]	cell viability (Calu-3 [9]; 1000 nM) [%]	cell viability (Calu-3 [9]; 10000 nM) [%]	cell viability (HepG2 [10]; 1 nM) [%]	cell viability (HepG2 [10]; 10 nM) [%]	cell viability (HepG2 [10]; 100 nM) [%]	cell viability (HepG2 [10]; 1000 nM) [%]	cell viability (HepG2 [10]; 10000 nM) [%]	relative viability EC50 (Vero E6 [11]) [µM]	relative viability EC50 (U2OS [12]) [µM]	relative viability EC50 (Caco-2 [13]) [µM]	relative viability EC50 (Calu-3 [14]) [µM]	relative viability EC50 (HepG2 [15]) [µM]
COc1cc2c(=O)c(-c3ccc(O)cc3)coc2cc1O [glycitein]	0	0	0	0	0	102	103	98.2	99.6	94.4	98.1	99.3	102	98.2	99.5	86.4	97.3	101	96	94.2	92.9	99.6	101	101	96.7	105	103	99.2	111	92.9	> 10	> 10	> 10	> 10	> 10
CC(C)C[C@@H](NC(=O)[C@H](C)NC(=O)CNC(=O)[C@@H](NC=O)C(C)C)C(=O)N[C@@H](C)C(=O)N[C@@H](C(=O)N[C@H](C(=O)N[C@@H](C(=O)N[C@@H](Cc1c[nH]c2ccccc12)C(=O)N[C@H](CC(C)C)C(=O)N[C@@H](Cc1c[nH]c2ccccc12)C(=O)N[C@H](CC(C)C)C(=O)N[C@@H](Cc1c[nH]c2ccccc12)C(=O)N[C@H](CC(C)C)C(=O)N[C@@H](Cc1c[nH]c2ccccc12)C(=O)NCCO)C(C)C)C(C)C)C(C)C [gramicidin]	0	12.3	0	3.7	0	99.2	94.3	94	92.5	98.3	97.5	94.3	32.4	97.4	20.3	90	118	54.6	106	90.7	109	94.2	87.9	95.7	42.9	101	100	26.4	114	121	> 10	0.466	> 10	2.55	> 10
N=C(N)NCCN1CCCCCCC1 [guanethidine]	0	0	0	0	0	105	97.2	95.2	109	101	102	96.6	99.7	98.8	103	92.3	96.6	91	91.8	101	104	102	99.6	95	97.3	99.3	102	96.4	106	93.6	> 10	> 10	> 10	> 10	> 10
N=C(N)NCCSSCCNC(=N)N [guanidinoethyldisulfide-bicarbonate]	0	0	0	0	0	97.5	96.3	102	96.2	91.4	106	96.8	100	96.8	102	101	87.2	93.6	101	91.8	99.7	106	99.9	98.6	108	93	101	96.4	97.9	93	> 10	> 10	> 10	> 10	> 10
CC1(C)O[C@@H]2C[C@H]3[C@@H]4CCC5=CC(=O)CC[C@]5(C)[C@@]4(F)[C@@H](O)C[C@]3(C)[C@]2(C(=O)CCl)O1 [halcinonide]	0	0.1	0	0	0	101	103	97.4	98.4	98.1	102	103	96.7	89.6	97.6	106	99.4	106	99	104	106	98.3	96.6	100	102	104	98	97.7	95.8	96	> 10	> 10	> 10	> 10	> 10
CC1(C)S[C@@H]2[C@H](N3C(=O)[C@@H](c4ccccc4)NC3(C)C)C(=O)N2[C@H]1C(=O)O [hetacillin]	0	0	0	0	0	109	97.6	94.7	110	90.4	100	95.7	101	95	99.5	98.3	92.7	96.8	93.4	86.4	99.4	94.3	104	100	113	95.6	101	102	110	93.8	> 10	> 10	> 10	> 10	> 10
